In ChEMBL document CHEMBL1122571, “Design and synthesis of tetrahedral intermediate analogues as potential dihydroorotase inhibitors” (J Med Chem, 1984):

Target: Multifunctional protein CAD (Mus musculus, UniProt B2RQC6)
Experiment: Compound was evaluated for the inhibition of dihydroorotase enzyme from mouse Ehrlich ascites at the concentration of 10 uM and at pH 7.37
Settings: read-out: I50

Multifunctional protein CAD, sequence (B2RQC6 whole entry): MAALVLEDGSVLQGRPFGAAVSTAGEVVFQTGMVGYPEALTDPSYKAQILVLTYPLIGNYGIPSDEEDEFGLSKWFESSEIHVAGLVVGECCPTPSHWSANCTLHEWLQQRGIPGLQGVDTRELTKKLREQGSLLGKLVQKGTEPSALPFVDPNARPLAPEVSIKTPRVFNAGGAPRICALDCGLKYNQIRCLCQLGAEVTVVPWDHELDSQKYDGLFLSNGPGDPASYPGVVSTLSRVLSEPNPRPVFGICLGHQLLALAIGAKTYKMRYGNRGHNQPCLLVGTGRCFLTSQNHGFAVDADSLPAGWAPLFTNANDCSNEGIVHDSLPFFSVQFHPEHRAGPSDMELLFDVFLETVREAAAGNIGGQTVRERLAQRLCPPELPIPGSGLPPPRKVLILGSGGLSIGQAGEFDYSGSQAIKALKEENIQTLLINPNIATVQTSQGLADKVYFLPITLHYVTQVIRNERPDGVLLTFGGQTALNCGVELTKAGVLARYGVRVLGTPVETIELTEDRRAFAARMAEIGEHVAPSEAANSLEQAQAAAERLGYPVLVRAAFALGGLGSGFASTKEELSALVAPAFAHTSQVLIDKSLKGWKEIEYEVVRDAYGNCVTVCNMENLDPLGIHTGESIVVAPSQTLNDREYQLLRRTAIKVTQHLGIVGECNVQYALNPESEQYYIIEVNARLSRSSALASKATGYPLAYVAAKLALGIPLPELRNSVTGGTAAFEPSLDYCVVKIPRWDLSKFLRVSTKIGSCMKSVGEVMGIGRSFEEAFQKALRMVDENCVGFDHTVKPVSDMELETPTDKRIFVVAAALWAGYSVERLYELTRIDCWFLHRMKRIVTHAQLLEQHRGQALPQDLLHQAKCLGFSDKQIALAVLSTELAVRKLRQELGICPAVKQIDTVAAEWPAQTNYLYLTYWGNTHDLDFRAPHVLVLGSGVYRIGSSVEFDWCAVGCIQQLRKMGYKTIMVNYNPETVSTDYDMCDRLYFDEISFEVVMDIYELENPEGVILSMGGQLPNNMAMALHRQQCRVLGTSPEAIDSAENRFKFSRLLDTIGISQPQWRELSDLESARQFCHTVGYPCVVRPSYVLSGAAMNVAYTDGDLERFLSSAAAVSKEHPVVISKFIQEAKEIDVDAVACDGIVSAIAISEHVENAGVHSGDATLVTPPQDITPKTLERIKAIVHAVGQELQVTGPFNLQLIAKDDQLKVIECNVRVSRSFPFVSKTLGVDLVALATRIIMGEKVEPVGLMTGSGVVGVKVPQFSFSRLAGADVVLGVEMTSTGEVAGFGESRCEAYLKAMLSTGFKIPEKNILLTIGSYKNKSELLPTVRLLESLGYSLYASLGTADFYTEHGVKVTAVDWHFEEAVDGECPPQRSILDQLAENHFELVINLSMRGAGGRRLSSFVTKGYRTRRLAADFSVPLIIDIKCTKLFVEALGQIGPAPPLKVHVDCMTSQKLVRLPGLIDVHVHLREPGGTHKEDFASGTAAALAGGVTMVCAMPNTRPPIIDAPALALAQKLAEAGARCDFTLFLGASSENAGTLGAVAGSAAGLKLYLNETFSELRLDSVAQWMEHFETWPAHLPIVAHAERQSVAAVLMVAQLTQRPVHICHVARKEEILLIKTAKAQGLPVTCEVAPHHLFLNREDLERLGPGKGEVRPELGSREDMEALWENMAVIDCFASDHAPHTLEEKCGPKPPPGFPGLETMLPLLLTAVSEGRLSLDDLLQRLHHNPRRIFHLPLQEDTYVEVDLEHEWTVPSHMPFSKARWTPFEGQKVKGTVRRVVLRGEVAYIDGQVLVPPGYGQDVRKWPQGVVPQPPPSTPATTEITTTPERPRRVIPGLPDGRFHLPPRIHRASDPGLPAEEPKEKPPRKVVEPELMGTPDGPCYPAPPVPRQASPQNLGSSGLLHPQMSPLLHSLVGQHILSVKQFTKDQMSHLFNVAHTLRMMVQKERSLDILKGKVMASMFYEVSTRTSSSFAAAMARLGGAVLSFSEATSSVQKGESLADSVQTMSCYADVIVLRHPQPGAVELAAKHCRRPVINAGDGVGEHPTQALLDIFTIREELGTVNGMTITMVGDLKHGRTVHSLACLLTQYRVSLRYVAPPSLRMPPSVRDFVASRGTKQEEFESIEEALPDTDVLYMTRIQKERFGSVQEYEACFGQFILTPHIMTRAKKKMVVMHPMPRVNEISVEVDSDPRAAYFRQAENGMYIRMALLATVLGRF

IC50 | Compound
> 1000 µM | C[S+]1([O-])=NC(=O)NC(C(=O)O)C1 (stereo not given)
180 µM | O=C1C[S+]([O-])CC(C(=O)O)N1 (stereo not given)
520 µM | O=C1NC(C(=O)O)CS(=O)(=O)N1 (stereo not given)
< 1000 µM | O=C1CSCC(C(=O)O)N1 (stereo not given)

Compound | IC50
NC(=O)NC(CP(=O)(O)O)C(=O)O (stereo not given) | > 1000 µM
